BindingDB's records for doi:10.1021/jm0409019 (Institute of Chemical Sciences and Engineering, 2005)

Legend:
[1] = target: alpha-mannosidase (Canavalia ensiformis); assay: Concentration of compound inhibiting alpha-Mannosidase isolated from Jack bean
[2] = target: alpha-mannosidase (Canavalia ensiformis); assay: Binding affinity towards alpha-Mannosidase isolated from Jack bean
[3] = target: alpha-mannosidase (Canavalia ensiformis); assay: Binding affinity towards alpha-Mannosidase isolated from jack bean
[4] = target: alpha-mannosidase (Canavalia ensiformis); assay: Inhibition of alpha-Mannosidase isolated from Jack bean

In the case of `O[C@H]1[C@@H](O)CN[C@@H]1CN[C@H](c1ccccc1)[C@@H](O)c1ccccc1` [(2R,3R,4S)-2-[((S)-Phenyl-1-(R)-2-hydroxy-2-phenyl-ethylamino)-methyl]-pyrrolidine-3,4-diol], the IC50 [1] is reported as 110 µM.
`OCC(NC[C@H]1N[C@H](CO)[C@H](O)[C@@H]1O)c1ccccc1` (stereo partly drawn) [(2R,3S,4R,5R)-2-Hydroxymethyl-5-[((R)-2-hydroxy-1-phenyl-ethylamino)-methyl]-pyrrolidine-3,4-diol] gave an IC50 [1] of 4.2 µM and a Ki [2] of 1.35 µM.
`O=C(NCC(NC[C@H]1NC[C@H](O)[C@@H]1O)c1ccccc1)c1cccc(Br)c1` (stereo partly drawn) [3-Bromo-N-{2-[((2R,3R,4S)-3,4-dihydroxy-pyrrolidin-2-ylmethyl)-amino]-2-phenyl-ethyl}-benzamide] was tested, and the IC50 [1] was 89 µM.
In the case of `O[C@H]1[C@@H](O)CN[C@@H]1CNC1CCc2ccccc21` (stereo partly drawn) [(2R,3R,4S)-2-((R)-Indan-1-ylaminomethyl)-pyrrolidine-3,4-diol], the IC50 [1] is reported as 17 µM and the Ki [2] is reported as 2.3 µM.
Compound `O[C@H]1[C@@H](O)CN[C@@H]1CN[C@@H](c1ccccc1)[C@H](O)c1ccccc1` [(2R,3R,4S)-2-[((R)-Phenyl-1-(S)-2-hydroxy-2-phenyl-ethylamino)-methyl]-pyrrolidine-3,4-diol] has an IC50 [1] of 128 µM.
`O[C@H]1[C@@H](O)CN[C@@H]1CNC(COCc1ccccc1)c1ccccc1` (stereo partly drawn) [(2R,3R,4S)-2-[((R)-2-Benzyloxy-1-phenyl-ethylamino)-methyl]-pyrrolidine-3,4-diol] showed a Ki [3] of 16 µM and an IC50 [4] of 58 µM.
